This assay has as its target T1, mPGES-1 (Homo sapiens, UniProt O14684).
T1 construct: made in house; host or cells: E. coli (membrane fraction)
T1 sequence (O14684 1-152): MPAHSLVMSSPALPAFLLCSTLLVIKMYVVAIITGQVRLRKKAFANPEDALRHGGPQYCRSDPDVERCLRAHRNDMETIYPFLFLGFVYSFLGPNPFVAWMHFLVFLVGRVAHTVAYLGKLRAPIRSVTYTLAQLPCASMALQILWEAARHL
Briefly: mPGES-1 assay: conversion of PGH2 to PGE2, PGE2 analysed by HPLC. In kind it is biochemical. Further details: dose or concentration left out as unconfirmed. Here is the method:
In the assay mPGES-1 catalyses the reaction where the substrate PGH2 is converted to PGE2. mPGES-1 is expressed in E. coli and the membrane fraction is dissolved in 20 mM NaPi-buffer pH 8.0 and stored at −80° C. In the assay mPGES-1 is dissolved in 0.1M KPi-buffer pH 7.35 with 2.5 mM glutathione. The stop solution consists of H2O/MeCN (7/3), containing FeCl2 (25 mM) and HCl (0.15 M). The assay is performed at room temperature in 96-well plates. Analysis of the amount of PGE2 is performed with reversed phase HPLC (Waters 2795 equipped with a 3.9×150 mm C18 column). The mobile phase consists of H2O/MeCN (7/3), containing TFA (0.056%), and absorbance is measured at 195 nm with a Waters 2487 UV-detector.
The following is added chronologically to each well: • 1. 100 μL mPGES-1 in KPi-buffer with glutathione. Total protein concentration: 0.02 mg/mL. • 2. 1 μL inhibitor in DMSO. Incubation of the plate at room temperature for 25 minutes. • 3. 4 μL of a 0.25 mM PGH2 solution. Incubation of the plate at room temperature for 60 seconds. • 4. 100 μL stop solution. • 180 μL per sample is analyzed with HPLC.
Consider `CC(C)(C)c1ccc(-c2ccc3c(-c4cccs4)c(C(=O)O)n(Cc4cccc(Oc5ccccc5)c4)c3c2)cc1` [Example 2, 6-(4-tert-Butylphenyl)-1-(3-phenoxybenzyl)-3-(2-thienyl)indole-2-carboxylic acid], for which the “inhibition of mPGES-1” value came out at 100%. Consider `O=C(O)c1c(-c2ccccc2)c2cc(-c3cccnc3)ccc2n1CCCc1ccccc1` [Example 4, 3-Phenyl-1-(3-phenylpropyl)-5-(3-pyridyl)indole-2-carboxylic acid], for which the “inhibition of mPGES-1” value amounted to 81%.

Take `O=C(O)c1cccc(-c2c(C(=O)O)n(Cc3cccc([N+](=O)[O-])c3)c3cc(-c4ccc(OCc5ccccc5)cc4)ccc23)c1` [Example 5, 6-(4-Benzyloxyphenyl)-3-(3-carboxyphenyl)-1-(3-nitrobenzyl)indole-2-carboxylic acid]: the “inhibition of mPGES-1” value amounted to 93%. Regarding `O=C(O)c1cccc(-c2c(C(=O)O)n(Cc3cccc(C(F)(F)F)c3)c3cccc(-c4ccccc4)c23)c1` [Example 6, 3-(3-Carboxyphenyl)-4-phenyl-1-[3-(trifluoromethyl)benzyl]indole-2-carboxylic acid], the “inhibition of mPGES-1” value amounted to 100%. Consider `CC(C)(C)c1ccc(-c2ccc3c(-c4ccccc4)c(C(=O)O)n(Cc4cccc(Oc5ccccc5)c4)c3c2)cc1` [Example 1, 6-(4-tert-Butylphenyl)-1-(3-phenoxybenzyl)-3-phenylindole-2-carboxylic acid], for which the “inhibition of mPGES-1” value was 96%. The same measure for `O=C(O)c1c(-c2ccccc2)c2cc(-c3ccc4c(c3)OCO4)ccc2n1CCCc1ccccc1` [Example 3, 5-(3,4-Methylenedioxyphenyl)-3-phenyl-1-(3-phenylpropyl)indole-2-carboxylic acid]: 85%.

The values are drawn from patent US20060160879A1, “Indoles useful in the treatment of inflammation” (priority 2003, published 2006).
